{"source": "PubChem BioAssay (NCI)", "assay_in_all_cases": "NCI tumour cell line growth inhibition, 48 h", "key": {"[1]": {"system": "BT-549 breast"}, "[2]": {"system": "CCRF-CEM leukemia"}, "[3]": {"system": "SK-MEL-2 melanoma"}, "[4]": {"system": "EKVX NSCLC"}, "[5]": {"system": "SK-OV-3 ovarian"}, "[6]": {"system": "NCI-H522 lung"}, "[7]": {"system": "SF-268 CNS"}, "[8]": {"system": "OVCAR-4 ovarian"}, "[9]": {"system": "LOX IMVI melanoma"}, "[10]": {"system": "SF-295 CNS"}, "[11]": {"system": "KM12 colon"}, "[12]": {"system": "MDA-MB-231 breast"}, "[13]": {"system": "HCT-116 colon"}, "[14]": {"system": "A549 NSCLC"}, "[15]": {"system": "K-562 leukemia"}, "[16]": {"system": "A498 renal"}, "[17]": {"system": "OVCAR-8 ovarian"}, "[18]": {"system": "U251 CNS"}, "[19]": {"system": "OVCAR-5 ovarian"}, "[20]": {"system": "HL-60(TB) leukemia"}, "[21]": {"system": "NCI/ADR-RES ovarian"}, "[22]": {"system": "SNB-19 CNS"}, "[23]": {"system": "MALME-3M melanoma"}, "[24]": {"system": "HCT-15 colon"}, "[25]": {"system": "RPMI-8226 leukemia"}, "[26]": {"system": "SK-MEL-28 melanoma"}, "[27]": {"system": "M14 melanoma"}, "[28]": {"system": "HOP-62 NSCLC"}, "[29]": {"system": "NCI-H460 lung"}}, "note": "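Interpolation was linear, between the two tested concentrations surrounding the appropriate level; five concentrations were tested over 48 hours in 96-well plates. GI50 = concentration required for 50% inhibition of growth. At the TGI there is no net growth.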"}
{"smiles": "C/C(=C(/c1ccc(O)cc1)c1ccc(OCCN2CCCCCC2)cc1)c1ccccc1", "values": [{"measurement": "GI50", "setting": "[1]", "value": "> 100", "unit": "µM"}, {"measurement": "TGI", "setting": "[1]", "value": "> 100", "unit": "µM"}, {"measurement": "GI50", "setting": "[2]", "value": 76.2, "unit": "µM"}, {"measurement": "TGI", "setting": "[2]", "value": "> 100", "unit": "µM"}, {"measurement": "GI50", "setting": "[3]", "value": "> 100", "unit": "µM"}, {"measurement": "TGI", "setting": "[3]", "value": "> 100", "unit": "µM"}, {"measurement": "GI50", "setting": "[4]", "value": "> 100", "unit": "µM"}, {"measurement": "TGI", "setting": "[4]", "value": "> 100", "unit": "µM"}, {"measurement": "GI50", "setting": "[5]", "value": "> 100", "unit": "µM"}, {"measurement": "TGI", "setting": "[5]", "value": "> 100", "unit": "µM"}, {"measurement": "GI50", "setting": "[6]", "value": "> 100", "unit": "µM"}, {"measurement": "TGI", "setting": "[6]", "value": "> 100", "unit": "µM"}, {"measurement": "GI50", "setting": "[7]", "value": "> 100", "unit": "µM"}, {"measurement": "TGI", "setting": "[7]", "value": "> 100", "unit": "µM"}, {"measurement": "GI50", "setting": "[8]", "value": "> 100", "unit": "µM"}, {"measurement": "TGI", "setting": "[8]", "value": "> 100", "unit": "µM"}, {"measurement": "GI50", "setting": "[9]", "value": 19.5, "unit": "µM"}, {"measurement": "TGI", "setting": "[9]", "value": 41.5, "unit": "µM"}, {"measurement": "GI50", "setting": "[10]", "value": 93.3, "unit": "µM"}, {"measurement": "TGI", "setting": "[10]", "value": "> 100", "unit": "µM"}, {"measurement": "GI50", "setting": "[11]", "value": 83.8, "unit": "µM"}, {"measurement": "TGI", "setting": "[11]", "value": "> 100", "unit": "µM"}, {"measurement": "GI50", "setting": "[12]", "value": "> 100", "unit": "µM"}, {"measurement": "TGI", "setting": "[12]", "value": "> 100", "unit": "µM"}, {"measurement": "GI50", "setting": "[13]", "value": 34.1, "unit": "µM"}, {"measurement": "TGI", "setting": "[13]", "value": "> 100", "unit": "µM"}, {"measurement": "GI50", "setting": "[14]", "value": "> 100", "unit": "µM"}, {"measurement": "TGI", "setting": "[14]", "value": "> 100", "unit": "µM"}, {"measurement": "GI50", "setting": "[15]", "value": 22.7, "unit": "µM"}, {"measurement": "TGI", "setting": "[15]", "value": "> 100", "unit": "µM"}, {"measurement": "GI50", "setting": "[16]", "value": "> 100", "unit": "µM"}, {"measurement": "TGI", "setting": "[16]", "value": "> 100", "unit": "µM"}, {"measurement": "GI50", "setting": "[17]", "value": "> 100", "unit": "µM"}, {"measurement": "TGI", "setting": "[17]", "value": "> 100", "unit": "µM"}, {"measurement": "GI50", "setting": "[18]", "value": 69.9, "unit": "µM"}, {"measurement": "TGI", "setting": "[18]", "value": "> 100", "unit": "µM"}, {"measurement": "GI50", "setting": "[19]", "value": "> 100", "unit": "µM"}, {"measurement": "TGI", "setting": "[19]", "value": "> 100", "unit": "µM"}, {"measurement": "GI50", "setting": "[20]", "value": 26.5, "unit": "µM"}, {"measurement": "TGI", "setting": "[20]", "value": "> 100", "unit": "µM"}, {"measurement": "GI50", "setting": "[21]", "value": "> 100", "unit": "µM"}, {"measurement": "TGI", "setting": "[21]", "value": "> 100", "unit": "µM"}, {"measurement": "GI50", "setting": "[22]", "value": "> 100", "unit": "µM"}, {"measurement": "TGI", "setting": "[22]", "value": "> 100", "unit": "µM"}, {"measurement": "GI50", "setting": "[23]", "value": 40.9, "unit": "µM"}, {"measurement": "TGI", "setting": "[23]", "value": "> 100", "unit": "µM"}, {"measurement": "GI50", "setting": "[24]", "value": 23.8, "unit": "µM"}, {"measurement": "TGI", "setting": "[24]", "value": 69.9, "unit": "µM"}, {"measurement": "GI50", "setting": "[25]", "value": 30.5, "unit": "µM"}, {"measurement": "TGI", "setting": "[25]", "value": "> 100", "unit": "µM"}, {"measurement": "GI50", "setting": "[26]", "value": 42.9, "unit": "µM"}, {"measurement": "TGI", "setting": "[26]", "value": "> 100", "unit": "µM"}, {"measurement": "GI50", "setting": "[27]", "value": 35.5, "unit": "µM"}, {"measurement": "TGI", "setting": "[27]", "value": "> 100", "unit": "µM"}, {"measurement": "GI50", "setting": "[28]", "value": "> 100", "unit": "µM"}, {"measurement": "TGI", "setting": "[28]", "value": "> 100", "unit": "µM"}, {"measurement": "GI50", "setting": "[29]", "value": 38.2, "unit": "µM"}]}
